What was measured:
Cannabinoid receptor 1 = Cannabinoid receptor 1 (Rattus norvegicus, UniProt P20272); assay: Concentration required to displace 0.4 nM [3H]SR-141,716A from CB1 receptor in rat brain preparations in the presence of 0.1 mM phenylmethyl sulfonyl fluoride; assay type: tissue-based
Rattus norvegicus [1] = species: Rattus norvegicus; assay: Tested for percent immobility time in the ring test, expressed as % of control (p<0.01); assay type: functional
Rattus norvegicus [2] = assay: Tested for decrease in rectal temperature 10 min after ip injection; assay type: functional
Rattus norvegicus [3] = assay: Tested for decrease in rectal temperature 5 min after ip injection; assay type: functional
Rattus norvegicus [4] = species: Rattus norvegicus; assay: Tested to induce analgesia in hot plate test, expressed as percent of latency time (p<0.05); assay type: functional
Rattus norvegicus [5] = species: Rattus norvegicus; assay: Tested to induce analgesia in hot plate test, expressed as percent of latency time; assay type: functional

Sequence of Cannabinoid receptor 1 (P20272 whole entry): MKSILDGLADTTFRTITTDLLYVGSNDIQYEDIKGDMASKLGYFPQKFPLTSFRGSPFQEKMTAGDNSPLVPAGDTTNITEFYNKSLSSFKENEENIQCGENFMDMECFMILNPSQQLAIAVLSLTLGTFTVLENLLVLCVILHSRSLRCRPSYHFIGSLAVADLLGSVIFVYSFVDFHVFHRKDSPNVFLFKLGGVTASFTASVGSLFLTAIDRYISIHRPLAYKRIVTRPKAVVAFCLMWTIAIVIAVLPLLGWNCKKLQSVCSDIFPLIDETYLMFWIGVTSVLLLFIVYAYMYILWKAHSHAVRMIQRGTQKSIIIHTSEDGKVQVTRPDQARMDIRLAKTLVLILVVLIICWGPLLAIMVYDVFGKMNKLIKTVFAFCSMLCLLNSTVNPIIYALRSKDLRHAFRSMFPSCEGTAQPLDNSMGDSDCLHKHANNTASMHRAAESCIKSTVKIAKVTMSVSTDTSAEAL

SMILES	Ki (Cannabinoid receptor 1) [nM]	Immobility time (Rattus norvegicus [1]) [%]	Rectal temperature (Rattus norvegicus [2]) [°C]	Rectal temperature (Rattus norvegicus [3]) [°C]	Latency time (Rattus norvegicus [4]) [%]	Latency time (Rattus norvegicus [5]) [%]
CCCCC/C=C\C/C=C\C/C=C\C/C=C\CCCC(=O)NCCc1ccc(O)c(O)c1 [ARACHIDONOYL DOPAMINE]	380	500	1.27	1.35	222	
CC/C=C\C/C=C\C/C=C\C/C=C\C/C=C\CCCCCC(=O)NCCc1ccc(O)c(O)c1	1370	610	1.82	1.35	144	
CC/C=C\C/C=C\C/C=C\C/C=C\CCCCC(=O)NCCc1ccc(O)c(O)c1		570	1.67	1.45		120
CCCCC/C=C\C/C=C\CC/C=C\CCCC(=O)NCCc1ccc(O)c(O)c1	1720	528	0.4	0.5		162
CCCCC/C=C\C/C=C\C/C=C\C/C=C\CCCC(=O)NCCO [ANANDAMIDE]		750	2.53	1.93		165
CC/C=C\C/C=C\C/C=C\C/C=C\C/C=C\C/C=C\CCC(=O)NCCc1ccc(O)c(O)c1		674	1.1	0.9	296	
CC/C=C\C/C=C\C/C=C\C/C=C\C/C=C\CCCC(=O)NCCc1ccc(O)c(O)c1		658		1.64	135	
CCCCC/C=C\C/C=C\C/C=C\CCCCCCC(=O)NCCc1ccc(O)c(O)c1		693	0.7	0.43		129
